Results reported in ChEMBL document CHEMBL3046640, “Synthesis and antimicrobial activity of bischalcone derivatives” (2013).
In brackets after ≈: the same amount, converted by molar mass. Activity calls are given as the source filed them. The rule behind the calls is not given here.

Legend:
Format in all cases: functional
Rhizopus arrhizus [1] = assay: Antifungal activity against Rhizopus oryzae MTCC 262 assessed as growth inhibition at 100 ug/mL after 3 to 4 days by agar diffusion method; conditions: read-out: DIZ
Aspergillus niger [2] = assay: Antifungal activity against Aspergillus niger ATCC 16404 assessed as growth inhibition at 100 ug/mL after 3 to 4 days by agar diffusion method; conditions: read-out: DIZ
Candida albicans [3] = assay: Antifungal activity against Candida albicans ATCC 10231 assessed as growth inhibition at 100 ug/mL after 3 to 4 days by agar diffusion method; conditions: read-out: DIZ
Pseudomonas aeruginosa [4] = assay: Antibacterial activity against Pseudomonas aeruginosa ATCC 27853 assessed as growth inhibition at 100 ug/mL after 24 hr by cup-plate method; conditions: ATCC 27853, 24 h, read-out: DIZ
Escherichia coli [5] = assay: Antibacterial activity against Escherichia coli ATCC 25922 assessed as growth inhibition at 100 ug/mL after 24 hr by cup-plate method; conditions: ATCC 25922, 24 h, read-out: DIZ
Staphylococcus aureus [6] = assay: Antibacterial activity against Staphylococcus aureus ATCC 25923 assessed as growth inhibition at 100 ug/mL after 24 hr by cup-plate method; conditions: ATCC 25923, 24 h, read-out: DIZ
Rhizopus arrhizus [7] = assay: Antifungal activity against Rhizopus oryzae MTCC 262 assessed as growth inhibition after 48 hr by broth dilution method
Aspergillus niger [8] = assay: Antifungal activity against Aspergillus niger ATCC 16404 assessed as growth inhibition after 48 hr by broth dilution method
Candida albicans [9] = assay: Antifungal activity against Candida albicans ATCC 10231 assessed as growth inhibition after 48 hr by broth dilution method
Pseudomonas aeruginosa [10] = assay: Antibacterial activity against Pseudomonas aeruginosa ATCC 27853 assessed as growth inhibition after 24 hr by broth dilution method
Escherichia coli [11] = assay: Antibacterial activity against Escherichia coli ATCC 25922 assessed as growth inhibition after 24 hr by broth dilution method
Staphylococcus aureus [12] = assay: Antibacterial activity against Staphylococcus aureus ATCC 25923 assessed as growth inhibition after 24 hr by broth dilution method

Molecule `COc1cc(/C=C/C(=O)c2cc(C(=O)/C=C/c3cc(OC)c(OC)c(OC)c3)c(O)cc2O)cc(OC)c1OC` has a zone of inhibition at 100 µg/mL (Rhizopus arrhizus [1]) of 10 mm, a zone of inhibition at 100 µg/mL (Aspergillus niger [2]) of 10 mm and a zone of inhibition at 100 µg/mL (Candida albicans [3]) of 15 mm. The zone of inhibition at 100 µg/mL (Pseudomonas aeruginosa [4]) was 5 mm, the zone of inhibition at 100 µg/mL (Escherichia coli [5]) was 10 mm and the zone of inhibition at 100 µg/mL (Staphylococcus aureus [6]) was 10 mm. The MIC (Rhizopus arrhizus [7]; MTCC 262, 48 h) was 50 µg/mL (≈ 90.8 µM), the MIC (Aspergillus niger [8]; ATCC 16404, 48 h) was 50 µg/mL (≈ 90.8 µM) and the MIC (Candida albicans [9]; ATCC 10231, 48 h) was 25 µg/mL (≈ 45.4 µM). It also gave an MIC (Pseudomonas aeruginosa [10]; ATCC 27853, 24 h) of over 100 µg/mL, an MIC (Escherichia coli [11]; ATCC 25922, 24 h) of 50 µg/mL (≈ 90.8 µM) and an MIC (Staphylococcus aureus [12]; ATCC 25923, 24 h) of 50 µg/mL (≈ 90.8 µM).

`COc1cc(OC)c(C(=O)/C=C/c2cc(OC)c(OC)c(OC)c2)cc1C(=O)/C=C/c1cc(OC)c(OC)c(OC)c1` showed a zone of inhibition at 100 µg/mL (Rhizopus arrhizus [1]) of under 5 mm, a zone of inhibition at 100 µg/mL (Aspergillus niger [2]) of under 5 mm and a zone of inhibition at 100 µg/mL (Candida albicans [3]) of 5 mm. It also gave a zone of inhibition at 100 µg/mL (Pseudomonas aeruginosa [4]) of 5 mm, a zone of inhibition at 100 µg/mL (Escherichia coli [5]) of 10 mm and a zone of inhibition at 100 µg/mL (Staphylococcus aureus [6]) of 5 mm. The MIC (Rhizopus arrhizus [7]) was “inactive”, the MIC (Aspergillus niger [8]) was “inactive” and the MIC (Candida albicans [9]; ATCC 10231, 48 h) was over 100 µg/mL. The MIC (Pseudomonas aeruginosa [10]; ATCC 27853, 24 h) was over 100 µg/mL, the MIC (Escherichia coli [11]; ATCC 25922, 24 h) was 50 µg/mL (≈ 86.4 µM) and the MIC (Staphylococcus aureus [12]; ATCC 25923, 24 h) was over 100 µg/mL.

In the case of `CC(=O)c1cc(C(C)=O)c(OC(=O)c2ccccc2[N+](=O)[O-])cc1OC(=O)c1ccccc1[N+](=O)[O-]`, the zone of inhibition at 100 µg/mL (Rhizopus arrhizus [1]) is reported as under 5 mm, the zone of inhibition at 100 µg/mL (Aspergillus niger [2]) is reported as under 5 mm and the zone of inhibition at 100 µg/mL (Candida albicans [3]) is reported as under 5 mm. For the same molecule, the zone of inhibition at 100 µg/mL (Pseudomonas aeruginosa [4]) was under 5 mm, the zone of inhibition at 100 µg/mL (Escherichia coli [5]) was 5 mm and the zone of inhibition at 100 µg/mL (Staphylococcus aureus [6]) was 10 mm. The MIC (Rhizopus arrhizus [7]) was “inactive”, the MIC (Aspergillus niger [8]) was “inactive” and the MIC (Candida albicans [9]) was “inactive”. The MIC (Pseudomonas aeruginosa [10]) was “inactive”, the MIC (Escherichia coli [11]; ATCC 25922, 24 h) was over 100 µg/mL and the MIC (Staphylococcus aureus [12]; ATCC 25923, 24 h) was 50 µg/mL (≈ 102 µM).

`CN(C)c1ccc(/C=C/C(=O)c2cc(C(=O)/C=C/c3ccc(N(C)C)cc3)c(O)cc2O)cc1` gave a zone of inhibition at 100 µg/mL (Rhizopus arrhizus [1]) of 10 mm, a zone of inhibition at 100 µg/mL (Aspergillus niger [2]) of 5 mm and a zone of inhibition at 100 µg/mL (Candida albicans [3]) of 10 mm. The zone of inhibition at 100 µg/mL (Pseudomonas aeruginosa [4]) was 10 mm, the zone of inhibition at 100 µg/mL (Escherichia coli [5]) was 15 mm and the zone of inhibition at 100 µg/mL (Staphylococcus aureus [6]) was 10 mm. It also gave an MIC (Rhizopus arrhizus [7]; MTCC 262, 48 h) of 50 µg/mL (≈ 110 µM), an MIC (Aspergillus niger [8]; ATCC 16404, 48 h) of over 100 µg/mL and an MIC (Candida albicans [9]; ATCC 10231, 48 h) of 50 µg/mL (≈ 110 µM). The MIC (Pseudomonas aeruginosa [10]; ATCC 27853, 24 h) was 50 µg/mL (≈ 110 µM), the MIC (Escherichia coli [11]; ATCC 25922, 24 h) was 25 µg/mL (≈ 54.8 µM) and the MIC (Staphylococcus aureus [12]; ATCC 25923, 24 h) was 50 µg/mL (≈ 110 µM).

Work on `CC(=O)c1cc(C(C)=O)c(OC(=O)c2ccccc2C)cc1OC(=O)c1ccccc1C` yielded a zone of inhibition at 100 µg/mL (Rhizopus arrhizus [1]) of under 5 mm, a zone of inhibition at 100 µg/mL (Aspergillus niger [2]) of under 5 mm and a zone of inhibition at 100 µg/mL (Candida albicans [3]) of under 5 mm. It also gave a zone of inhibition at 100 µg/mL (Pseudomonas aeruginosa [4]) of under 5 mm, a zone of inhibition at 100 µg/mL (Escherichia coli [5]) of under 5 mm and a zone of inhibition at 100 µg/mL (Staphylococcus aureus [6]) of under 5 mm. The MIC (Rhizopus arrhizus [7]) was “inactive”, the MIC (Aspergillus niger [8]) was “inactive” and the MIC (Candida albicans [9]) was “inactive”. The MIC (Pseudomonas aeruginosa [10]) was “inactive”, the MIC (Escherichia coli [11]) was “inactive” and the MIC (Staphylococcus aureus [12]) was “inactive”.

`COc1cc(-c2cc(=O)c3cc4c(=O)cc(-c5cc(OC)c(OC)c(OC)c5)oc4cc3o2)cc(OC)c1OC` gave a zone of inhibition at 100 µg/mL (Rhizopus arrhizus [1]) of 10 mm, a zone of inhibition at 100 µg/mL (Aspergillus niger [2]) of 10 mm and a zone of inhibition at 100 µg/mL (Candida albicans [3]) of 10 mm. The zone of inhibition at 100 µg/mL (Pseudomonas aeruginosa [4]) was 5 mm, the zone of inhibition at 100 µg/mL (Escherichia coli [5]) was 10 mm and the zone of inhibition at 100 µg/mL (Staphylococcus aureus [6]) was 5 mm. The MIC (Rhizopus arrhizus [7]; MTCC 262, 48 h) was 50 µg/mL (≈ 91.5 µM), the MIC (Aspergillus niger [8]; ATCC 16404, 48 h) was 50 µg/mL (≈ 91.5 µM) and the MIC (Candida albicans [9]; ATCC 10231, 48 h) was 50 µg/mL (≈ 91.5 µM). The MIC (Pseudomonas aeruginosa [10]; ATCC 27853, 24 h) was over 100 µg/mL, the MIC (Escherichia coli [11]; ATCC 25922, 24 h) was 50 µg/mL (≈ 91.5 µM) and the MIC (Staphylococcus aureus [12]; ATCC 25923, 24 h) was over 100 µg/mL.

Work on `O=C(/C=C/c1ccco1)c1cc(C(=O)/C=C/c2ccco2)c(O)cc1O` yielded a zone of inhibition at 100 µg/mL (Rhizopus arrhizus [1]) of 10 mm, a zone of inhibition at 100 µg/mL (Aspergillus niger [2]) of 15 mm and a zone of inhibition at 100 µg/mL (Candida albicans [3]) of 15 mm. The zone of inhibition at 100 µg/mL (Pseudomonas aeruginosa [4]) was 15 mm, the zone of inhibition at 100 µg/mL (Escherichia coli [5]) was 15 mm and the zone of inhibition at 100 µg/mL (Staphylococcus aureus [6]) was 15 mm. The MIC (Rhizopus arrhizus [7]; MTCC 262, 48 h) was 50 µg/mL (≈ 143 µM), the MIC (Aspergillus niger [8]; ATCC 16404, 48 h) was 25 µg/mL (≈ 71.4 µM) and the MIC (Candida albicans [9]; ATCC 10231, 48 h) was 12.5 µg/mL (≈ 35.7 µM). It also gave an MIC (Pseudomonas aeruginosa [10]; ATCC 27853, 24 h) of 12.5 µg/mL (≈ 35.7 µM), an MIC (Escherichia coli [11]; ATCC 25922, 24 h) of 12.5 µg/mL (≈ 35.7 µM) and an MIC (Staphylococcus aureus [12]; ATCC 25923, 24 h) of 25 µg/mL (≈ 71.4 µM).
